The term EC50 denotes the concentration that produces a half-maximal response.

EC50 data for 19 compounds are collected here from patent publication US9175003B2, “Substituted azoanthracene derivatives and intermediates for preparation thereof” (TransTech Pharma, LLC, priority 2009, dated 2015).

The target of the assay is human GLP-1 receptor (Homo sapiens (Human), UniProt P43220). As to conditions: read-out: Mean EC50; cAMP, HTRF detection, 30 min at 37° C., HEK-293 cells expressing cloned human GLP-1 receptor. (In TR-FRET formats the signal depends on donor and acceptor labels being close together.)
human GLP-1 receptor, sequence (P43220 24-463): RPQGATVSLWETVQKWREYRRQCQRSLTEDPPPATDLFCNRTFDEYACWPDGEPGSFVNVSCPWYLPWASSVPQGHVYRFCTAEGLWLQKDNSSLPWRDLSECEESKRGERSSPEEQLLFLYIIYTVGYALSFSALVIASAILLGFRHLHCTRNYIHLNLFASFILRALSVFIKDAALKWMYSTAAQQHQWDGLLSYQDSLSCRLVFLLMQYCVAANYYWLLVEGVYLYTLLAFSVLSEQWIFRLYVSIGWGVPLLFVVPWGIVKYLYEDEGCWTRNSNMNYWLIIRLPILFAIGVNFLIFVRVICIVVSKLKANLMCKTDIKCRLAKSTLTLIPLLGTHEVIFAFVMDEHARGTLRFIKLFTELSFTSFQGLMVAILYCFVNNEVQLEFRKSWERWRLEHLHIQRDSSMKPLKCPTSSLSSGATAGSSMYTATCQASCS

Protocol: Following overnight incubation of cells, media was removed, and compounds (at concentrations ranging from 0.0001 to 100 μM) were added to monolayer cells in Iscove's modified dulbecco's medium (IMDM), 100 μM RO 20-1724 PDE inhibitor, 0.1% BSA, 2% DMSO in a final volume of 100 μL, and incubated for 30 min at 37° C. […] Alternatively, cells were harvested and combined with compounds in suspension using the buffer and protocol described above. cAMP was quantified using a homogenous time-resolved fluorescence detection system (cAMP dynamic, CIS bio International).

In the case of `Cc1cc(Oc2ccc(C[C@H](NC(=O)[C@@H]3Cc4cc5c(cc4CN3C(=O)c3ccccc3)O[C@@H](c3ccc(OCc4ccc(Cl)c(Cl)c4)cc3)CO5)C(=O)O)cc2)ccn1` [Example 177, (S)-2-({(3S,8S)-7-Benzoyl-3-[4-(3,4-dichloro-benzyloxy)-phenyl]-2,3,6,7,8,9-hexahydro-[1,4]dioxino[2,3-g]isoquinoline-8-carbonyl}-amino)-3-[4-(2-methyl-pyridin-4-yloxy)-phenyl]-propionic acid], the EC50 was 150 nM.
`CCC[C@@H](c1ccccc1)N1Cc2cc3c(cc2C[C@H]1C(=O)N[C@@H](Cc1ccc(-c2ccc(C#N)cc2)cc1)C(=O)O)OC[C@H](c1ccc(OCc2ccc(Cl)c(Cl)c2)cc1)O3` [Example 178, (S)-3-(4′-Cyano-biphenyl-4-yl)-2-{[(3S,8S)-3-[4-(3,4-dichloro-benzyloxy)-phenyl]-7-((S)-1-phenyl-butyl)-2,3,6,7,8,9-hexahydro-[1,4]dioxino[2,3-g]isoquinoline-8-carbonyl]-amino}-propionic acid]: the EC50 was 306 nM.
`CC[C@@H](c1ccccc1)N1Cc2cc3c(cc2C[C@H]1C(=O)N[C@@H](Cc1ccc(-c2ccnc(C)c2C)cc1)C(=O)O)OC[C@H](c1ccc(OCc2ccc(Cl)c(Cl)c2)cc1)O3` [Example 179, (S)-2-{[(3S,8S)-3-[4-(3,4-Dichloro-benzyloxy)-phenyl]-7-((S)-1-phenyl-propyl)-2,3,6,7,8,9-hexahydro-[1,4]dioxino[2,3-g]isoquinoline-8-carbonyl]-amino}-3-[4-(2,3-dimethyl-pyridin-4-yl)-phenyl]-propionic acid]: the half-maximal effective concentration (EC50) amounted to 5 nM.
The figure for `CC[C@@H](c1ccccc1)N1Cc2cc3c(cc2C[C@H]1C(=O)N[C@@H](Cc1ccc(-c2cc(C)nn2C)cc1)C(=O)O)OC[C@H](c1ccc(OCc2ccc(Cl)c(Cl)c2)cc1)O3` [Example 180, (S)-2-{[(3S,8S)-3-[4-(3,4-Dichloro-benzyloxy)-phenyl]-7-((S)-1-phenyl-propyl)-2,3,6,7,8,9-hexahydro-[1,4]dioxino[2,3-g]isoquinoline-8-carbonyl]-amino}-3-[4-(2,5-dimethyl-2H-pyrazol-3-yl)-phenyl]-propionic acid] is 3 nM; for `CC[C@@H](c1ccccc1)N1Cc2cc3c(cc2C[C@H]1C(=O)N[C@@H](Cc1ccc(Oc2ccnc(C)c2)cc1)C(=O)O)OC[C@H](c1ccc(OCc2ccc(Cl)c(Cl)c2)cc1)O3` [Example 181, (S)-2-{[(3S,8S)-3-[4-(3,4-Dichloro-benzyloxy)-phenyl]-7-((S)-1-phenyl-propyl)-2,3,6,7,8,9-hexahydro-[1,4]dioxino[2,3-g]isoquinoline-8-carbonyl]-amino}-3-[4-(2-methyl-pyridin-4-yloxy)-phenyl]-propionic acid] it is 16 nM; for `CC[C@@H](c1ccccc1)N1Cc2cc3c(cc2C[C@H]1C(=O)N[C@@H](Cc1ccc(-c2ccnc4c2CCC4)cc1)C(=O)O)OC[C@H](c1ccc(OCc2ccc(Cl)c(Cl)c2)cc1)O3` [Example 182, (S)-2-{[(3S,8S)-3-[4-(3,4-Dichloro-benzyloxy)-phenyl]-7-((S)-1-phenyl-propyl)-2,3,6,7,8,9-hexahydro-[1,4]dioxino[2,3-g]isoquinoline-8-carbonyl]-amino}-3-[4-(6,7-dihydro-5H-[1]pyrindin-4-yl)-phenyl]-propionic acid] it is 29 nM.
The figure for `CC[C@@H](c1ccccc1)N1Cc2cc3c(cc2C[C@H]1C(=O)N[C@@H](Cc1ccc(Oc2ccncc2)cc1)C(=O)O)OC[C@H](c1ccc(OCc2ccc(Cl)c(Cl)c2)cc1)O3` [Example 184] is 74 nM.
In the case of `CC[C@@H](c1ccccc1)N1Cc2cc3c(cc2C[C@H]1C(=O)N[C@@H](Cc1ccc(Oc2cccnc2)cc1)C(=O)O)OC[C@H](c1ccc(OCc2ccc(Cl)c(Cl)c2)cc1)O3` [Example 185, (S)-2-{[(3S,8S)-3-[4-(3,4-Dichloro-benzyloxy)-phenyl]-7-((S)-1-phenyl-propyl)-2,3,6,7,8,9-hexahydro-[1,4]dioxino[2,3-g]isoquinoline-8-carbonyl]-amino}-3-[4-(pyridin-3-yloxy)-phenyl]-propionic acid], the EC50 is 119 nM.
`CC[C@@H](c1ccccc1)N1Cc2cc3c(cc2C[C@H]1C(=O)N[C@@H](Cc1ccc(-c2ccnnc2)cc1)C(=O)O)OC[C@H](c1ccc(OCc2ccc(Cl)c(Cl)c2)cc1)O3` [Example 186, (S)-2-{[(3S,8S)-3-[4-(3,4-Dichloro-benzyloxy)-phenyl]-7-((S)-1-phenyl-propyl)-2,3,6,7,8,9-hexahydro-[1,4]dioxino[2,3-g]isoquinoline-8-carbonyl]-amino}-3-(4-pyridazin-4-yl-phenyl)-propionic acid]: the EC50 was found to be 256 nM.
Turning to `CC[C@@H](c1ccccc1)N1Cc2cc3c(cc2C[C@H]1C(=O)N[C@@H](Cc1ccc(-c2cc(C)nc(C)c2)cc1)C(=O)O)OC[C@H](c1ccc(OCc2ccc(Cl)c(Cl)c2)cc1)O3` [Example 188, (S)-2-{[(3S,8S)-3-[4-(3,4-Dichloro-benzyloxy)-phenyl]-7-((S)-1-phenyl-propyl)-2,3,6,7,8,9-hexahydro-[1,4]dioxino[2,3-g]isoquinoline-8-carbonyl]-amino}-3-[4-(2,6-dimethyl-pyridin-4-yl)-phenyl]-propionic acid], the concentration for a half-maximal effect (EC50) came out at 14 nM.
The figure for `CC[C@@H](c1ccccc1)N1Cc2cc3c(cc2C[C@H]1C(=O)N[C@@H](Cc1ccc(Oc2ccnc(C)c2C)cc1)C(=O)O)OC[C@H](c1ccc(OCc2ccc(Cl)c(Cl)c2)cc1)O3` [Example 189, (S)-2-{[(3S,8S)-3-[4-(3,4-Dichloro-benzyloxy)-phenyl]-7-((S)-1-phenyl-propyl)-2,3,6,7,8,9-hexahydro-[1,4]dioxino[2,3-g]isoquinoline-8-carbonyl]-amino}-3-[4-(2,3-dimethyl-pyridin-4-yloxy)-phenyl]-propionic acid] is 31 nM; for `CC[C@@H](c1ccccc1)N1Cc2cc3c(cc2C[C@H]1C(=O)N[C@@H](Cc1ccc(-c2cc(C)ncc2C)cc1)C(=O)O)OC[C@H](c1ccc(OCc2ccc(Cl)c(Cl)c2)cc1)O3` [Example 190, (S)-2-{[(3S,8S)-3-[4-(3,4-Dichloro-benzyloxy)-phenyl]-7-((S)-1-phenyl-propyl)-2,3,6,7,8,9-hexahydro-[1,4]dioxino[2,3-g]isoquinoline-8-carbonyl]-amino}-3-[4-(2,5-dimethyl-pyridin-4-yl)-phenyl]-propionic acid] it is 11 nM.
Take `CC[C@@H](c1ccccc1)N1Cc2cc3c(cc2C[C@H]1C(=O)N[C@@H](Cc1ccc(-c2ccnn2C)cc1)C(=O)O)OC[C@H](c1ccc(OCc2ccc(Cl)c(Cl)c2)cc1)O3` [Example 191, (S)-2-{[(3S,8S)-3-[4-(3,4-Dichloro-benzyloxy)-phenyl]-7-((S)-1-phenyl-propyl)-2,3,6,7,8,9-hexahydro-[1,4]dioxino[2,3-g]isoquinoline-8-carbonyl]-amino}-3-[4-(2-methyl-2H-pyrazol-3-yl)-phenyl]-propionic acid]: the half-maximal effective concentration (EC50) came to 66 nM.
As for `CC[C@@H](c1ccccc1)N1Cc2cc3c(cc2C[C@H]1C(=O)N[C@@H](Cc1ccc(-c2ccnc(O)c2)cc1)C(=O)O)OC[C@H](c1ccc(OCc2ccc(Cl)c(Cl)c2)cc1)O3` [Example 195, (S)-2-{[(3S,8S)-3-[4-(3,4-Dichloro-benzyloxy)-phenyl]-7-((S)-1-phenyl-propyl)-2,3,6,7,8,9-hexahydro-[1,4]dioxino[2,3-g]isoquinoline-8-carbonyl]-amino}-3-[4-(2-hydroxy-pyridin-4-yl)-phenyl]-propionic acid], the half-maximal effective concentration (EC50) turned out to be 138 nM.
`CC[C@@H](c1ccccc1)N1Cc2cc3c(cc2C[C@H]1C(=O)N[C@@H](Cc1ccc(-c2ccc(C)nc2)cc1)C(=O)O)OC[C@H](c1ccc(OCc2ccc(Cl)c(Cl)c2)cc1)O3` [Example 196, (S)-2-{[(3S,8S)-3-[4-(3,4-Dichloro-benzyloxy)-phenyl]-7-((S)-1-phenyl-propyl)-2,3,6,7,8,9-hexahydro-[1,4]dioxino[2,3-g]isoquinoline-8-carbonyl]-amino}-3-[4-(6-methyl-pyridin-3-yl)-phenyl]-propionic acid]: the EC50 is 127 nM.
The figure for `CC[C@@H](c1ccccc1)N1Cc2cc3c(cc2C[C@H]1C(=O)N[C@@H](Cc1ccc(-c2cnn(C)c2)cc1)C(=O)O)OC[C@H](c1ccc(OCc2ccc(Cl)c(Cl)c2)cc1)O3` [Example 197, (S)-2-{[(3S,8S)-3-[4-(3,4-Dichloro-benzyloxy)-phenyl]-7-((S)-1-phenyl-propyl)-2,3,6,7,8,9-hexahydro-[1,4]dioxino[2,3-g]isoquinoline-8-carbonyl]-amino}-3-[4-(1-methyl-1H-pyrazol-4-yl)-phenyl]-propionic acid] is 262 nM; for `CC[C@@H](c1ccccc1)N1Cc2cc3c(cc2C[C@H]1C(=O)N[C@@H](Cc1ccc(-c2ccnc(CO)c2)cc1)C(=O)O)OC[C@H](c1ccc(OCc2ccc(Cl)c(Cl)c2)cc1)O3` [Example 206, (S)-2-{[(3S,8S)-3-[4-(3,4-Dichloro-benzyloxy)-phenyl]-7-((S)-1-phenyl-propyl)-2,3,6,7,8,9-hexahydro-[1,4]dioxino[2,3-g]isoquinoline-8-carbonyl]-amino}-3-[4-(2-hydroxymethyl-pyridin-4-yl)-phenyl]-propionic acid] it is 61 nM; for `CC[C@@H](c1ccccc1)N1Cc2cc3c(cc2C[C@H]1C(=O)N[C@@H](Cc1ccc(-c2ccnc(N)c2)cc1)C(=O)O)OC[C@H](c1ccc(OCc2ccc(Cl)c(Cl)c2)cc1)O3` [Example 208, (S)-3-[4-(2-Amino-pyridin-4-yl)-phenyl]-2-{[(3S,8S)-3-[4-(3,4-dichloro-benzyloxy)-phenyl]-7-((S)-1-phenyl-propyl)-2,3,6,7,8,9-hexahydro-[1,4]dioxino[2,3-g]isoquinoline-8-carbonyl]-amino}-propionic acid] it is 72 nM.
To `CC[C@@H](c1ccccc1)N1Cc2cc3c(cc2C[C@H]1C(=O)N[C@@H](Cc1ccc(-c2ccnc4ccccc24)cc1)C(=O)O)OC[C@H](c1ccc(OCc2ccc(Cl)c(Cl)c2)cc1)O3` [Example 211, (S)-2-{[(3S,8S)-3-[4-(3,4-Dichloro-benzyloxy)-phenyl]-7-((S)-1-phenyl-propyl)-2,3,6,7,8,9-hexahydro-[1,4]dioxino[2,3-g]isoquinoline-8-carbonyl]-amino}-3-(4-quinolin-4-yl-phenyl)-propionic acid] belongs 21 nM.
